# Literature values as cited in patent US9370540B2, “K2 composition and the preparation method and use of the same” (SINPHAR PHARMACEUTICAL CO., LTD., priority 2014, dated 2016).
# Test system: A549 cells
# Conditions: from Molecular Carcinogenesis papers
smiles,measurement,value
C=C(CC[C@@H](C(=O)O)[C@H]1[C@H](O)C[C@@]2(C)C3=CC[C@H]4C(C)(C)C(=O)CC[C@]4(C)C3=CC[C@]12C)C(C)C [polyporenic acid C],"IC50, inhibiting the growth of lung cancer cells",about 15 μg/ml
